Values after ≈ are worked out from the molar mass of the structure shown. Where two headings read alike, the source gives them in different places.
Legend:
[1] = tested on: Corynebacterium bovis 1810; assay: MIC, serial dilution on Mueller Hinton agar; type: cell-based
Mycobacterium 607 = assay: MIC, serial dilution on Mueller Hinton agar; type: cell-based
[2] = tested on: Klebsiella pneumoniae 22#3038; assay: MIC, serial dilution on Mueller Hinton agar; type: cell-based; settings: Klebsiella pneumoniae 22#3038, resistance mechanism APH(3')-II, ANT(2"), 37°C, 18 hours
Text: The antibacterial spectra so determined of the new compounds No. 1 to No. 13 (each in the form of the free base) of this invention are as shown in Table 1 below.

[3] = tested on: Escherichia coli K-12 LA 290 R55; assay: MIC, serial dilution on Mueller Hinton agar; type: cell-based; settings: for MIC: Escherichia coli, K12LA290R55, 18 h
[4] = tested on: Pseudomonas aeruginosa A3; assay: MIC, serial dilution on Mueller Hinton agar; type: cell-based
[5] = tested on: Staphylococcus aureus Ap01; assay: MIC, serial dilution on Mueller Hinton agar; type: cell-based
[6] = tested on: Pseudomonas aeruginosa GN 315; assay: MIC, serial dilution on Mueller Hinton agar; type: cell-based
Escherichia coli JR225 = assay: microbe, parasite or virus in culture; type: cell-based; settings: for MIC: Escherichia coli, JR225, 18 h
Serratia marcescens = assay: MIC, serial dilution on Mueller Hinton agar; type: cell-based
[7] = tested on: Escherichia coli K-12 ML 1629; assay: MIC, serial dilution on Mueller Hinton agar; type: cell-based; settings: K12ML1629, Escherichia coli K-12 ML 1629, resistance mechanism APH(3')-I, 37°C, 18 hours
Proteus rettgeri GN 311 = assay: MIC, serial dilution on Mueller Hinton agar; type: cell-based; settings: Providencia rettgeri, GN311; Proteus rettgeri GN 311; Mueller Hinton agar, 37°C, 18 hours; read-out: MIC.
Providencia sp. Pv 16 = assay: MIC, serial dilution on Mueller Hinton agar; type: cell-based
Bacillus subtilis PCI219 = assay: MIC, serial dilution on Mueller Hinton agar; type: cell-based
[8] = tested on: Staphylococcus aureus 209P; assay: MIC, serial dilution on Mueller Hinton agar; type: cell-based
Escherichia coli K-12 = assay: MIC, serial dilution on Mueller Hinton agar; type: cell-based; settings: K12; Escherichia coli K-12; Mueller Hinton agar, 37°C, 18 hours; read-out: MIC.
[9] = tested on: Escherichia coli JR66/W677; assay: microbe, parasite or virus in culture; type: cell-based; settings: JR66/W677, 18 h
Escherichia coli K-12 R5 = assay: MIC, serial dilution on Mueller Hinton agar; type: cell-based; settings: K12R5, 18 h
in vivo = settings: mouse, iv
[10] = Corynebacterium bovis 1810, Mueller Hinton agar, 37°C, 18 hours, read-out: MIC.
[11] = Mycobacterium 607, Mueller Hinton agar, 37°C, incubated for 40 hours, read-out: MIC.
[12] = Pseudomonas aeruginosa A3, Mueller Hinton agar, 37°C, 18 hours, read-out: MIC.
[13] = Staphylococcus aureus Ap01, resistance mechanism ANT(4'), Mueller Hinton agar, 37°C, 18 hours, read-out: MIC.
[14] = GN315, Pseudomonas aeruginosa GN 315, resistance mechanism AAC(6'), Mueller Hinton agar, 37°C, 18 hours, read-out: MIC.
[15] = SP.PV16, Providencia sp. Pv 16, resistance mechanism AAC(2'), Mueller Hinton agar, 37°C, 18 hours, read-out: MIC.
[16] = Bacillus subtilis PCI219, Mueller Hinton agar, 37°C, 18 hours, read-out: MIC.
[17] = Staphylococcus aureus 209P, Mueller Hinton agar, 37°C, 18 hours, read-out: MIC.
[18] = Mueller Hinton agar, 37°C, 18 hours, read-out: MIC.
[19] = Staphylococcus aureus, AP01, 18 h
[20] = Pseudomonas aeruginosa, GN315, 18 h

SMILES	MIC [1, 10] [µg/mL]	MIC (Mycobacterium 607; [11]) [µg/mL]	MIC [2] [µg/mL]	MIC [3] [µg/mL]	MIC [4, 12] [µg/mL]	MIC [5, 13] [µg/mL]	MIC [6, 14] [µg/mL]	MIC (Escherichia coli JR225) [µg/mL]	MIC (Serratia marcescens; 18 h) [µg/mL]	MIC [7] [µg/mL]	MIC (Proteus rettgeri GN 311) [µg/mL]	MIC (Providencia sp. Pv 16; [15]) [µg/mL]	MIC (Bacillus subtilis PCI219; [16]) [µg/mL]	MIC [8, 17] [µg/mL]	MIC (Escherichia coli K-12) [µg/mL]	MIC [9] [µg/mL]	MIC (Escherichia coli K-12 R5) [µg/mL]	MIC (Serratia marcescens; [18]) [µg/mL]	further results
NCC[C@H](O)C(=O)N[C@@H]1C[C@H](N)[C@@H](O[C@H]2O[C@H](CN)C[C@H](O)[C@H]2N)[C@H](F)[C@H]1O[C@H]1O[C@H](CO)[C@@H](O)[C@H](N)[C@H]1O [Compound No. 10, 1-N-(4-Amino-2-(S)-hydroxybutyryl)-5,4'-dideoxy-5-fluorokanamycin B]	< 0.2	6.25 (≈ 11 µM)	3.12 (≈ 5.47 µM)	1.56 (≈ 2.73 µM)	0.39 (≈ 0.683 µM)	0.39 (≈ 0.683 µM)	6.25 (≈ 11 µM)	0.78 (≈ 1.37 µM)	3.12 (≈ 5.47 µM)	0.78 (≈ 1.37 µM)	0.2 (≈ 0.35 µM)	0.78 (≈ 1.37 µM)	0.39 (≈ 0.683 µM)	0.39 (≈ 0.683 µM)	0.2 (≈ 0.35 µM)	1.56 (≈ 2.73 µM)	12.5 (≈ 21.9 µM)		
NC[C@H]1O[C@H](O[C@H]2[C@H](F)[C@@H](O[C@H]3O[C@H](CO)[C@@H](O)[C@H](N)[C@H]3O)[C@H](N)C[C@@H]2N)[C@H](N)[C@@H](O)[C@@H]1O [Compound No. 1, 5-Deoxy-5-fluorokanamycin B]	0.78 (≈ 1.61 µM)	1.56 (≈ 3.21 µM)	> 100	3.12 (≈ 6.43 µM)	1.56 (≈ 3.21 µM)	25 (≈ 51.5 µM)	100 (≈ 206 µM)	0.78 (≈ 1.61 µM)		> 100	< 0.2		0.39 (≈ 0.803 µM)	0.39 (≈ 0.803 µM)	0.78 (≈ 1.61 µM)	> 100	100 (≈ 206 µM)	6.25 (≈ 12.9 µM)	antibacterial activity ([3]; Escherichia coli K-12 LA290 R55, resistant strain having the enzyme for adenylating the 2"-hydroxyl group of kanamycin B): significantly active; antibacterial activity (Escherichia coli JR225; Escherichia coli JR 225, resistant strain having the enzyme for acetylating the 3-hydroxyl group of kanamycin B): significantly active; MIC (Providencia sp. Pv 16; Providencia, SP.PV16, 18 h): 3.12 µg/mL (≈ 6.43 µM); antibacterial activity (Providencia sp. Pv 16; Providensia Pv 16, resistant strain having the enzyme for acetylating the 2'-amino group of kanamycin B): significantly active
NC[C@H](O)C(=O)N[C@@H]1C[C@H](N)[C@@H](O[C@H]2O[C@H](CN)[C@@H](O)[C@H](O)[C@H]2N)[C@H](F)[C@H]1O[C@H]1O[C@H](CO)[C@@H](O)[C@H](N)[C@H]1O [Compound No. 5, 1-N-(3-Amino-2-(S)-hydroxypropionyl)-5-deoxy-5-fluorokanamycin B]	< 0.2	6.25 (≈ 10.9 µM)	3.12 (≈ 5.45 µM)	1.56 (≈ 2.72 µM)	0.2 (≈ 0.349 µM)	6.25 (≈ 10.9 µM)	6.25 (≈ 10.9 µM)	0.2 (≈ 0.349 µM)	1.56 (≈ 2.72 µM)	0.78 (≈ 1.36 µM)	< 0.2	0.78 (≈ 1.36 µM)	0.78 (≈ 1.36 µM)	0.39 (≈ 0.681 µM)	< 0.2	1.56 (≈ 2.72 µM)	12.5 (≈ 21.8 µM)		
NCC(O)C(=O)N[C@@H]1C[C@H](N)[C@@H](O[C@H]2O[C@H](CN)[C@@H](O)C[C@H]2N)[C@H](F)[C@H]1O[C@H]1O[C@H](CO)[C@@H](O)[C@H](N)[C@H]1O (stereo partly drawn) [Compound No. 7, 1-N-(3-Amino-2-(RS)-hydroxypropionyl)-5,3'-dideoxy-5-fluorokanamycin B]	< 0.2	0.78 (≈ 1.4 µM)	3.12 (≈ 5.61 µM)	0.78 (≈ 1.4 µM)	0.39 (≈ 0.701 µM)			0.78 (≈ 1.4 µM)	3.12 (≈ 5.61 µM)	0.78 (≈ 1.4 µM)	0.78 (≈ 1.4 µM)	0.78 (≈ 1.4 µM)	0.2 (≈ 0.359 µM)	0.39 (≈ 0.701 µM)	0.2 (≈ 0.359 µM)	1.56 (≈ 2.8 µM)	6.25 (≈ 11.2 µM)		MIC [5, 19]: 1.56 µg/mL (≈ 2.8 µM); MIC [6, 20]: 6.25 µg/mL (≈ 11.2 µM)
NC[C@@H]1CC[C@@H](N)[C@@H](O[C@H]2[C@H](O)[C@@H](O[C@H]3O[C@H](CO)[C@@H](O)[C@H](N)[C@H]3O)[C@H](N)C[C@@H]2N)O1 [DKB, 3',4'-dideoxykanamycin B, reference compound]		1.56 (≈ 3.45 µM)	50 (≈ 111 µM)	50 (≈ 111 µM)	0.2 (≈ 0.443 µM)			100 (≈ 221 µM)			0.2 (≈ 0.443 µM)		0.39 (≈ 0.864 µM)	0.39 (≈ 0.864 µM)	0.2 (≈ 0.443 µM)		50 (≈ 111 µM)		
NC[C@@H]1CC[C@@H](N)[C@@H](O[C@H]2[C@H](F)[C@@H](O[C@H]3O[C@H](CO)[C@@H](O)[C@H](N)[C@H]3O)[C@H](NC(=O)[C@@H](O)CN)C[C@@H]2N)O1 [Compound No. 12, 1-N-(3-Amino-2-(S)-hydroxypropionyl)-5,3',4'-trideoxy-5-fluorokanamycin B]	0.2 (≈ 0.37 µM)	0.78 (≈ 1.44 µM)	1.56 (≈ 2.89 µM)	1.56 (≈ 2.89 µM)	0.39 (≈ 0.721 µM)	0.78 (≈ 1.44 µM)	6.25 (≈ 11.6 µM)	0.39 (≈ 0.721 µM)	1.56 (≈ 2.89 µM)	0.78 (≈ 1.44 µM)	< 0.2		0.39 (≈ 0.721 µM)	0.39 (≈ 0.721 µM)	0.2 (≈ 0.37 µM)	1.56 (≈ 2.89 µM)	50 (≈ 92.5 µM)		MIC (Providencia sp. Pv 16; Providencia, SP.PV16, 18 h): 1.56 µg/mL (≈ 2.89 µM)
NC[C@H](O)C(=O)N[C@@H]1C[C@H](N)[C@@H](O[C@H]2O[C@H](CN)[C@@H](O)C[C@H]2N)[C@H](F)[C@H]1O[C@H]1O[C@H](CO)[C@@H](O)[C@H](N)[C@H]1O [Compound No. 8, 1-N-(3-Amino-2-(S)-hydroxypropionyl)-5,3'-dideoxy-5-fluorokanamycin B]	< 0.2	0.78 (≈ 1.4 µM)	1.56 (≈ 2.8 µM)	1.56 (≈ 2.8 µM)	0.39 (≈ 0.701 µM)	0.78 (≈ 1.4 µM)		0.78 (≈ 1.4 µM)	3.12 (≈ 5.61 µM)	0.78 (≈ 1.4 µM)	0.39 (≈ 0.701 µM)	0.78 (≈ 1.4 µM)	0.2 (≈ 0.359 µM)	0.39 (≈ 0.701 µM)	0.2 (≈ 0.359 µM)	0.78 (≈ 1.4 µM)	6.25 (≈ 11.2 µM)		MIC [6, 20]: 6.25 µg/mL (≈ 11.2 µM)
NC[C@@H]1C[C@H](O)[C@@H](N)[C@@H](O[C@H]2[C@H](F)[C@@H](O[C@H]3O[C@H](CO)[C@@H](O)[C@H](N)[C@H]3O)[C@H](N)C[C@@H]2N)O1 [Compound No. 3, 5,4'-Dideoxy-5-fluorokanamycin B]	0.78 (≈ 1.66 µM)	3.12 (≈ 6.65 µM)	> 100	6.25 (≈ 13.3 µM)	3.12 (≈ 6.65 µM)	0.78 (≈ 1.66 µM)	100 (≈ 213 µM)	6.25 (≈ 13.3 µM)		> 100	0.2 (≈ 0.426 µM)		0.39 (≈ 0.831 µM)	0.39 (≈ 0.831 µM)	1.56 (≈ 3.32 µM)	> 100	100 (≈ 213 µM)	12.5 (≈ 26.6 µM)	MIC (Providencia sp. Pv 16; Providencia, SP.PV16, 18 h): 6.25 µg/mL (≈ 13.3 µM)
NCC[C@H](O)C(=O)N[C@@H]1C[C@H](N)[C@@H](O[C@H]2O[C@H](CN)[C@@H](O)[C@H](O)[C@H]2O)[C@H](O)[C@H]1O[C@H]1O[C@H](CO)[C@@H](O)[C@H](N)[C@H]1O [AMK, 1-N-(4-amino-2-(S)-hydroxybutyryl)-kanamycin A, reference compound]			3.12 (≈ 5.33 µM)	1.56 (≈ 2.66 µM)			25 (≈ 42.7 µM)			1.56 (≈ 2.66 µM)						3.12 (≈ 5.33 µM)	25 (≈ 42.7 µM)	6.25 (≈ 10.7 µM)	MIC ([1]; Corynebacterium bovis, 1810, 18 h): 1.56 µg/mL (≈ 2.66 µM); MIC ([4]; Pseudomonas aeruginosa, A3, 18 h): 1.56 µg/mL (≈ 2.66 µM); MIC [5, 19]: 3.12 µg/mL (≈ 5.33 µM); MIC (Bacillus subtilis PCI219; Bacillus subtilis, PCI219, 18 h): 1.56 µg/mL (≈ 2.66 µM); MIC ([8]; Staphylococcus aureus, 209P, 18 h): 1.56 µg/mL (≈ 2.66 µM)
NCC[C@H](O)C(=O)N[C@@H]1C[C@H](N)[C@@H](O[C@H]2O[C@H](CN)[C@@H](O)[C@H](O)[C@H]2N)[C@H](F)[C@H]1O[C@H]1O[C@H](CO)[C@@H](O)[C@H](N)[C@H]1O [Compound No. 6, 1-N-(4-Amino-2-(S)-hydroxybutyryl)-5-deoxy-5-fluorokanamycin B]	< 0.2		3.12 (≈ 5.32 µM)	0.78 (≈ 1.33 µM)	< 0.2	6.25 (≈ 10.7 µM)	6.25 (≈ 10.7 µM)	< 0.2		0.78 (≈ 1.33 µM)	< 0.2	0.78 (≈ 1.33 µM)	0.39 (≈ 0.665 µM)	0.39 (≈ 0.665 µM)	< 0.2	0.78 (≈ 1.33 µM)	12.5 (≈ 21.3 µM)	1.56 (≈ 2.66 µM)	MIC (Mycobacterium 607; Mycobacterium, 607, 40 h): 12.5 µg/mL (≈ 21.3 µM)
NCC[C@H](O)C(=O)N[C@@H]1C[C@H](N)[C@@H](O[C@H]2O[C@H](CN)CC[C@H]2N)[C@H](O)[C@H]1O[C@H]1O[C@H](CO)[C@@H](O)[C@H](N)[C@H]1O [habekacin, 1-N-(4-amino-2-(S)-hydroxybutyryl)-3',4'-dideoxykanamycin B, reference compound]																			LD50 (in vivo): 90 mg/kg
